One experiment concerns the target T1, Recombinant JAK3 (Homo sapiens, UniProt P52333).
T1 construct: purchased Carna Biosciences
T1 sequence (P52333 1-1124): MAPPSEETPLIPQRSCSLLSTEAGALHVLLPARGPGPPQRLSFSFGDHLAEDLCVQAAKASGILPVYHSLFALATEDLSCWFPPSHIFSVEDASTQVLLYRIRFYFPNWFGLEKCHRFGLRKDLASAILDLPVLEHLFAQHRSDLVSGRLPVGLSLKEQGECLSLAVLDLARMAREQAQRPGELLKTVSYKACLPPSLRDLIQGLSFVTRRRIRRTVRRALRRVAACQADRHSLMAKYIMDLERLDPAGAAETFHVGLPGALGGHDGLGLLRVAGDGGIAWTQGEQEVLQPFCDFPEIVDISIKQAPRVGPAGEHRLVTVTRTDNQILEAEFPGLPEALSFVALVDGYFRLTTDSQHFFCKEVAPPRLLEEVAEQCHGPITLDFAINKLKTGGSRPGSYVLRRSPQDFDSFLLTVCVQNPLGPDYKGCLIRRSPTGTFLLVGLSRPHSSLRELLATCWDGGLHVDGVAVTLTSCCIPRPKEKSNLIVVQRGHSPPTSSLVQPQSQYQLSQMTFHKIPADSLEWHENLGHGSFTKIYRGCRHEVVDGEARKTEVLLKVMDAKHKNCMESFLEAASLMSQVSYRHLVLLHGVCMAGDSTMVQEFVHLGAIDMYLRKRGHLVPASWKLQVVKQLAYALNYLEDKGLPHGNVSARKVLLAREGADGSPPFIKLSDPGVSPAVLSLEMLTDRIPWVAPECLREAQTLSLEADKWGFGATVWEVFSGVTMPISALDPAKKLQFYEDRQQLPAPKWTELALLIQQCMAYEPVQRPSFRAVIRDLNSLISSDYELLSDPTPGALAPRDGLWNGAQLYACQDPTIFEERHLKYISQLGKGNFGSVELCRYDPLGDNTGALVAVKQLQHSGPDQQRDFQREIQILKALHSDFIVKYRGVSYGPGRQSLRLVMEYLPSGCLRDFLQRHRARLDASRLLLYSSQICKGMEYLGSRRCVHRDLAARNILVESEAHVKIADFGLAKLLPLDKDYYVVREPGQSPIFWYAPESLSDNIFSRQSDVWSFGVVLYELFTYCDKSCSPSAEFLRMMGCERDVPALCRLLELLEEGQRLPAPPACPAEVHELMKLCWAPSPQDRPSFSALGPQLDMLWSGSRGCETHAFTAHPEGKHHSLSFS
The experiment can be described thus: JAK biochemical assay (LANCE Ultra TR-FRET), JAK3. The note with it: recombinant JAK3, TR-FRET; read-out: Biochemical Assay (μM) JAK3. The gist of the method:
(§1)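 TR-FRET read-out of ULight substrate phosphorylation by recombinant kinase gives % inhibition relative to vehicle. The assay buffer is HEPES pH 7.5 with EGTA, MgCl2, DTT and Tween-20.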
Background: In TR-FRET formats the signal depends on donor and acceptor labels being close together.

The target of another experiment is T2, Recombinant JAK1 (Homo sapiens, UniProt P23458).
T2 construct: purchased Carna Biosciences
The experiment in a line: JAK biochemical assay (LANCE Ultra TR-FRET), JAK1. The note with it: recombinant JAK1, TR-FRET; read-out: Biochemical Assay (μM) JAK1. A digest of the protocol:
as §1

In a further experiment the target is T3, Recombinant TYK2 (Homo sapiens, UniProt P29597).
T3 construct: purchased Carna Biosciences
The experiment can be described thus: JAK biochemical assay (LANCE Ultra TR-FRET), TYK2. The note with it: recombinant TYK2, TR-FRET; read-out: Biochemical Assay (μM) TYK2. A digest of the protocol:
as §1

Experiment [1] relates to STAT5 phosphorylation by GMCSF in TF-1 cells. The experiment in a line: JAK cellular assay: STAT5 phosphorylation by GMCSF in TF-1 cells (HTRF). As to conditions: TF-1 cells, GMCSF 5 ng/ml, pSTAT5 HTRF, read-out: Cell Based Assay (μM) TF-1/GMCSF/pSTAT5. In kind it is cell-based. The gist of the method:
(§2)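 TF-1 cells starved overnight in low-serum OptiMEM, then 120,000/well in RPMI, preincubated with compound 30 min at 37 °C (0.2% DMSO final). Stimulation 20 min with IL-6 30 ng/ml (pSTAT3) or GMCSF 5 ng/ml (pSTAT5); lysate phospho-STAT by HTRF, unstimulated background subtracted.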

Another experiment deals with T4, Recombinant JAK2 (Homo sapiens, UniProt O60674).
T4 construct: purchased Carna Biosciences
The experiment in a line: JAK biochemical assay (LANCE Ultra TR-FRET), JAK2. As to conditions: recombinant JAK2, TR-FRET; read-out: Biochemical Assay (μM) JAK2. The gist of the method:
as §1

Experiment [2] concerns STAT3 phosphorylation by IL-6 in TF-1 cells. The experiment can be described thus: JAK cellular assay: STAT3 phosphorylation by IL-6 in TF-1 cells (HTRF). In kind it is cell-based. As to conditions: IL-6 30 ng/ml, pSTAT3 HTRF, read-out: Cell Based Assay (μM) TF-1/IL-6/pSTAT3. The gist of the method: as §2

Read-outs that look alike come from different tables or passages of the source.

T2 sequence (P23458 whole entry): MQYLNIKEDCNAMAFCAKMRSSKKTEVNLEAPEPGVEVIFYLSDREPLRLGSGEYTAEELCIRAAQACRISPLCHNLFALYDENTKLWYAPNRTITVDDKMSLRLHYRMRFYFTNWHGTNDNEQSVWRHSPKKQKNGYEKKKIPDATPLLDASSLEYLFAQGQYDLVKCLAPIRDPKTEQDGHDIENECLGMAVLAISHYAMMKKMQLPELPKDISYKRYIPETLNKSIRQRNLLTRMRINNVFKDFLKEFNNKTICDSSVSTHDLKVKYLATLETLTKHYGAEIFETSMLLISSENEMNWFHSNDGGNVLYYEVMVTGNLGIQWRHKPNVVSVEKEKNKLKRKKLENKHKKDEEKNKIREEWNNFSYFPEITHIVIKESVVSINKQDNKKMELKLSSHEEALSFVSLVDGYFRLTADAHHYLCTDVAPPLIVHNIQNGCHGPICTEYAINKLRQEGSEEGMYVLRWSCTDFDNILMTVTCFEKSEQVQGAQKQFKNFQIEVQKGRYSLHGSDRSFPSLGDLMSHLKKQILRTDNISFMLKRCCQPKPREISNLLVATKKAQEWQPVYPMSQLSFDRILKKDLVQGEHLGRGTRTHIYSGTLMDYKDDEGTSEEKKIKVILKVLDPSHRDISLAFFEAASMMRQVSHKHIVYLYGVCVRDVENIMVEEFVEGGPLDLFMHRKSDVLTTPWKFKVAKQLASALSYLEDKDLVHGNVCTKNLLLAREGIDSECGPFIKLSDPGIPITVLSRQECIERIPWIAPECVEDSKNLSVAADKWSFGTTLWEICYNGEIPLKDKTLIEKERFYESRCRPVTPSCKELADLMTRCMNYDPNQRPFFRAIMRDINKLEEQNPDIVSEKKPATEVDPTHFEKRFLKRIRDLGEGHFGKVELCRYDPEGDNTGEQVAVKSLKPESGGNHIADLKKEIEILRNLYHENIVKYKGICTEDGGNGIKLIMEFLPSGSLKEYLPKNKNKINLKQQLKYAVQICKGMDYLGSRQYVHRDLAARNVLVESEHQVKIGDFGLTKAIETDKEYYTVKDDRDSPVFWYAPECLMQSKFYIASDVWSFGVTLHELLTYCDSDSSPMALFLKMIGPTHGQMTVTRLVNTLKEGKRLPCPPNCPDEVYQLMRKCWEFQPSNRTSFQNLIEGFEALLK
T4 sequence (O60674 whole entry): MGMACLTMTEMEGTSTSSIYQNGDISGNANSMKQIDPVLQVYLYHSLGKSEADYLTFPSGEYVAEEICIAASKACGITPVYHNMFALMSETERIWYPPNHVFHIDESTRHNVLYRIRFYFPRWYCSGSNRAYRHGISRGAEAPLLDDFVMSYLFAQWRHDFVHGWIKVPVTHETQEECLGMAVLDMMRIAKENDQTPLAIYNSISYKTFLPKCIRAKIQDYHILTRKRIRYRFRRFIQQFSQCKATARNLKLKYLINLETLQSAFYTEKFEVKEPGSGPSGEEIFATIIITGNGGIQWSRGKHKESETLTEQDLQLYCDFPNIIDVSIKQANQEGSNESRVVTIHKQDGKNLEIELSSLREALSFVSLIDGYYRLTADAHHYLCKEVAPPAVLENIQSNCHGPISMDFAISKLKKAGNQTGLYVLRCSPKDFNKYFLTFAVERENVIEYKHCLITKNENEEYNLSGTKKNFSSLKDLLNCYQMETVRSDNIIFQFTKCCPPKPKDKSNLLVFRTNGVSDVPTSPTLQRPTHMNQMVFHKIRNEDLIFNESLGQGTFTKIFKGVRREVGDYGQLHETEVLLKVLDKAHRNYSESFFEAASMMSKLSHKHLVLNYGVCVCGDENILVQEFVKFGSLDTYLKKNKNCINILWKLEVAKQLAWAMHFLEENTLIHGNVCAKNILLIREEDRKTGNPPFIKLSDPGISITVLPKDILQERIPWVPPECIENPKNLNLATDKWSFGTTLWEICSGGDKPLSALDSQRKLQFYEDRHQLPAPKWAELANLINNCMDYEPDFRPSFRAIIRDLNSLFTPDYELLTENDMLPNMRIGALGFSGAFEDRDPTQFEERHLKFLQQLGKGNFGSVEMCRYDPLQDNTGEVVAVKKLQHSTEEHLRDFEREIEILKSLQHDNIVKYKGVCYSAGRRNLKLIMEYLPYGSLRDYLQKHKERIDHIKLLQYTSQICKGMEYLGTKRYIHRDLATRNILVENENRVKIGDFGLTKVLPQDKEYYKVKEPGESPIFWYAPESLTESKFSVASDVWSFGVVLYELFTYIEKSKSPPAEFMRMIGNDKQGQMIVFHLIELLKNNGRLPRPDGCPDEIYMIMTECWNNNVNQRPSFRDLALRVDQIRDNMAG
T3 sequence (P29597 whole entry): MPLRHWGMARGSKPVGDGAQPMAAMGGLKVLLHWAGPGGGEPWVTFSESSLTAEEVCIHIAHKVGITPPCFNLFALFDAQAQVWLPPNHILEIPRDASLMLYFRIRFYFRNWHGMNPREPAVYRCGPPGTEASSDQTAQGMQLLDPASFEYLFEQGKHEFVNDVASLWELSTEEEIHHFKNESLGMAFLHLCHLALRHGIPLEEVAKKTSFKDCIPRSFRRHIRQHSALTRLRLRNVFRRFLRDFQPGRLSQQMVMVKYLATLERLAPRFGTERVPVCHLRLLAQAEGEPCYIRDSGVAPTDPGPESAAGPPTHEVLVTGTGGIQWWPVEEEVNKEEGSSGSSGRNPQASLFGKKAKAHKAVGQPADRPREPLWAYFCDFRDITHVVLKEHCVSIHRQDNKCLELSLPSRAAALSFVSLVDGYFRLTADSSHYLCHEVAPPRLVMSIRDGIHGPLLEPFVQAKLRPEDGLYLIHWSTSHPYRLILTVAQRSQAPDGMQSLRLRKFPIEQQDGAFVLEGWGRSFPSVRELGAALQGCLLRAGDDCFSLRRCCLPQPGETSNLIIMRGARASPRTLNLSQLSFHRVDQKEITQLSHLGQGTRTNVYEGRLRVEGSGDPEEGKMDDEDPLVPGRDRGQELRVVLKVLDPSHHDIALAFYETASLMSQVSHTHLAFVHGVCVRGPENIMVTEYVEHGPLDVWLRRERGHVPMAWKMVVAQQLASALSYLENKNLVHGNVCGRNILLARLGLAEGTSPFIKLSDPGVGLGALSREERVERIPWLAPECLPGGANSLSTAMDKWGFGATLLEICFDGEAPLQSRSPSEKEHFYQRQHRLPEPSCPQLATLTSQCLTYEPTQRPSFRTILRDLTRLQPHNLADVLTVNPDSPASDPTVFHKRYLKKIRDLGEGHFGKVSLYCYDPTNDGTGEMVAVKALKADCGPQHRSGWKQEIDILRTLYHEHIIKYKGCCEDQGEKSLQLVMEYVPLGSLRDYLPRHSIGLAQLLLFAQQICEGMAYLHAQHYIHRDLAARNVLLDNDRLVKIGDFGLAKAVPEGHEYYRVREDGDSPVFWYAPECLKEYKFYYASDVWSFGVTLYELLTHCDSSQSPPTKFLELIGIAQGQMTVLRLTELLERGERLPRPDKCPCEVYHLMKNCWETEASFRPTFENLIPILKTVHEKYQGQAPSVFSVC

For `N#CC1CCN(C(=O)n2cc(-c3ccnc4[nH]cnc34)cn2)C1` (stereo not drawn) [Example 1177, 1-(4-(3H-imidazo[4,5-b]pyridin-7-yl)-1H-pyrazole-1-carbonyl)pyrrolidine-3-carbonitrile], the IC50 was over 1 µM at Recombinant JAK3; over 1 µM at Recombinant JAK1; over 0.5 µM at Recombinant TYK2; over 10 µM in experiment [1] (Homo sapiens); under 0.5 µM on Recombinant JAK2; over 10 µM in experiment [2] (Homo sapiens, TF-1, TF-1 cells).

Turning to `CN(CCC(c1ccc(-n2cc(-c3ccnc4[nH]cnc34)cn2)nc1)C(F)(F)F)C1CC1` (stereo not drawn) [Example 1195, N-(3-(6-(4-(3H-imidazo[4,5-b]pyridin-7-yl)-1H-pyrazol-1-yl)pyridin-3-yl)-4,4,4-trifluorobutyl)-N-methylcyclopropanamine], the IC50 at Recombinant JAK3 is under 0.1 µM; at Recombinant JAK1, under 0.1 µM; on Recombinant TYK2 it was over 1 µM; in experiment [1] (Homo sapiens) it was over 1 µM; on Recombinant JAK2, under 0.1 µM; in experiment [2] (Homo sapiens, TF-1, TF-1 cells) it was over 0.5 µM.

For the compound `CC(CC#N)NC(=O)n1cc(-c2ccnc3[nH]c(=O)[nH]c23)cn1` (stereo not drawn) [Example 1046, N-(1-cyanopropan-2-yl)-4-(2,3-dihydro-2-oxo-1H-imidazo[4,5-b]pyridin-7-yl)-1H-pyrazole-1-carboxamide], the IC50 was under 0.5 µM at Recombinant JAK3; under 0.5 µM at Recombinant JAK1; under 0.5 µM on Recombinant TYK2; over 10 µM in experiment [1] (Homo sapiens); under 0.5 µM at Recombinant JAK2; over 10 µM in experiment [2] (Homo sapiens, TF-1, TF-1 cells).

For `N#CCC(c1ccc(-n2cc(-c3ccnc4[nH]cnc34)cn2)nc1)C(F)(F)F` (stereo not drawn) [Example 1123, 3-(6-(4-(3H-imidazo[4,5-b]pyridin-7-yl)-1H-pyrazol-1-yl)pyridin-3-yl)-4,4,4-trifluorobutanenitrile], the IC50 on Recombinant JAK3 was over 0.1 µM; on Recombinant JAK1 it was over 0.1 µM; on Recombinant TYK2 it was over 1 µM; in experiment [1] (Homo sapiens), 10 µM; on Recombinant JAK2 it was over 0.5 µM; in experiment [2] (Homo sapiens, TF-1, TF-1 cells), over 1 µM.

Consider `CS(=O)(=O)NC(c1ccc(-n2cc(-c3ccnc4[nH]cnc34)cn2)nc1)C(F)(F)F` (stereo not drawn) [Example 1187], for which the IC50 at Recombinant JAK3 is under 0.1 µM; at Recombinant JAK1 it was under 0.1 µM; on Recombinant TYK2, over 1 µM; in experiment [1] (Homo sapiens), over 1 µM; on Recombinant JAK2 it was over 0.1 µM; in experiment [2] (Homo sapiens, TF-1, TF-1 cells), over 1 µM.

In the case of `N#CC(NC(=O)n1cc(-c2ccnc3[nH]c(=O)[nH]c23)cn1)C1CC1` (stereo not drawn) [Example 1043, N-(cyano(cyclopropyl)methyl)-4-(2,3-dihydro-2-oxo-1H-imidazo[4,5-b]pyridin-7-yl)-1H-pyrazole-1-carboxamide], the IC50 at Recombinant JAK3 was 0.123 µM; on Recombinant JAK1 it was 0.03 µM; on Recombinant TYK2, 0.053 µM; in experiment [1] (Homo sapiens), over 10 µM; at Recombinant JAK2 it was 0.031 µM; in experiment [2] (Homo sapiens, TF-1, TF-1 cells), 4.7 µM.

As to `N#CC1CN(C(=O)n2cc(-c3ccnc4[nH]c(=O)[nH]c34)cn2)C1` [Example 1048, 1-(4-(2-oxo-2,3-dihydro-1H-imidazo[4,5-b]pyridin-7-yl)-1H-pyrazole-1-carbonyl)azetidine-3-carbonitrile], the IC50 on Recombinant JAK3 is under 0.5 µM; at Recombinant JAK1, under 0.5 µM; at Recombinant TYK2 it was under 0.5 µM; in experiment [1] (Homo sapiens), over 10 µM; on Recombinant JAK2, under 0.5 µM; in experiment [2] (Homo sapiens, TF-1, TF-1 cells) it was over 10 µM.

`CC(CC#N)NC(=O)n1cc(-c2ccnc3[nH]c(=O)[nH]c23)cn1` (stereo not drawn) [Example 1052, N-(1-cyanopropan-2-yl)-4-(2,3-dihydro-2-oxo-1H-imidazo[4,5-b]pyridin-7-yl)-1H-pyrazole-1-carboxamide]: the IC50 at Recombinant JAK3 was over 0.5 µM; at Recombinant JAK1, under 0.5 µM; at Recombinant TYK2, under 0.5 µM; in experiment [1] it was over 10 µM; at Recombinant JAK2, under 0.5 µM; in experiment [2] (TF-1 cells), over 10 µM.

In the case of `O=S1(=O)CCN(Cc2ccc(-n3cc(-c4ccnc5[nH]cnc45)cn3)nc2)CC1` [Example 1086, 4-((6-(4-(3H-imidazo[4,5-b]pyridin-7-yl)-1H-pyrazol-1-yl)pyridin-3-yl)methyl)thiomorpholine 1,1-dioxide], the IC50 at Recombinant JAK3 was over 0.5 µM; on Recombinant JAK1, under 0.5 µM; on Recombinant TYK2, over 10 µM; in experiment [1] (Homo sapiens), over 10 µM; on Recombinant JAK2, over 0.5 µM; in experiment [2] (Homo sapiens, TF-1, TF-1 cells), over 10 µM.

On to `CC(NC(=O)Nc1ccc(-c2ccnc3[nH]c(=O)[nH]c23)cc1)C(F)(F)F` (stereo not drawn) [Example 1002, 1-(1,1,1-trifluoropropan-2-yl)-3-(4-(2,3-dihydro-2-oxo-1H-imidazo[4,5-b]pyridin-7-yl)phenyl)urea], for which the IC50 is under 0.5 µM at Recombinant JAK3; under 0.5 µM at Recombinant JAK1; over 0.5 µM on Recombinant TYK2; over 10 µM in experiment [1] (Homo sapiens); under 0.5 µM on Recombinant JAK2; over 10 µM in experiment [2] (Homo sapiens, TF-1, TF-1 cells).

Regarding `CCN1CCC(C(O)(c2ccc(-n3cc(-c4ccnc5[nH]cnc45)cn3)nc2)C(F)(F)F)CC1` (stereo not drawn) [Example 1221, 1-(6-(4-(3H-imidazo[4,5-b]pyridin-7-yl)-1H-pyrazol-1-yl)pyridin-3-yl)-1-(1-ethylpiperidin-4-yl)-2,2,2-trifluoroethanol], the IC50 on Recombinant JAK3 is under 0.1 µM; on Recombinant JAK1 it was under 0.1 µM; on Recombinant TYK2 it was over 0.1 µM; in experiment [1] (Homo sapiens), over 1 µM; at Recombinant JAK2 it was under 0.1 µM; in experiment [2] (Homo sapiens, TF-1, TF-1 cells), over 0.75 µM.

For `CS(=O)(=O)Cc1ccc(-n2cc(-c3ccnc4[nH]cnc34)cn2)nc1` [Example 1080, 7-(1-(5-((methylsulfonyl)methyl)pyridin-2-yl)-1H-pyrazol-4-yl)-3H-imidazo[4,5-b]pyridine], the IC50 on Recombinant JAK3 is under 0.5 µM; at Recombinant JAK1, 0.068 µM; at Recombinant TYK2, over 10 µM; in experiment [1] (Homo sapiens) it was over 10 µM; on Recombinant JAK2, under 0.5 µM; in experiment [2] (Homo sapiens, TF-1, TF-1 cells), over 1 µM.

`N#CCC(C1CCCC1)n1cc(-c2ccnc3[nH]c(-c4ccccc4)nc23)cn1` (stereo not drawn) [Example 1180, 3-cyclopentyl-3-(4-(2-phenyl-3H-imidazo[4,5-b]pyridin-7-yl)-1H-pyrazol-1-yl)propanenitrile]: the IC50 on Recombinant JAK3 was under 1 µM; on Recombinant JAK1 it was under 1 µM; on Recombinant TYK2 it was under 1 µM; in experiment [1] (Homo sapiens) it was over 1 µM; at Recombinant JAK2, under 1 µM; in experiment [2] (Homo sapiens, TF-1, TF-1 cells), over 1 µM.

On to `N#CCC(NC(=O)n1cc(-c2ccnc3[nH]c(=O)[nH]c23)cn1)C1CC1` (stereo not drawn) [Example 1051, N-(2-cyano-1-cyclopropylethyl)-4-(2,3-dihydro-2-oxo-1H-imidazo[4,5-b]pyridin-7-yl)-1H-pyrazole-1-carboxamide], for which the IC50 on Recombinant JAK3 is over 1 µM; at Recombinant JAK1, under 0.5 µM; at Recombinant TYK2, under 0.5 µM; in experiment [1] (Homo sapiens), over 10 µM; at Recombinant JAK2, under 0.5 µM; in experiment [2] (Homo sapiens, TF-1, TF-1 cells) it was under 10 µM.

`N#CCc1ccc(-n2cc(-c3ccnc4[nH]cnc34)cn2)c(F)c1` [Example 1103, 2-(4-(4-(3H-imidazo[4,5-b]pyridin-7-yl)-1H-pyrazol-1-yl)-3-fluorophenyl)acetonitrile]: the IC50 is over 10 µM at Recombinant JAK3; over 0.5 µM on Recombinant JAK1; over 10 µM at Recombinant TYK2; over 10 µM in experiment [1] (Homo sapiens); over 0.5 µM at Recombinant JAK2; over 1 µM in experiment [2] (Homo sapiens, TF-1, TF-1 cells).

Values taken from US12516056B2, “Compounds for inhibition of janus kinase 1” (MANKIND PHARMA LTD., priority 2019, dated 2026).
